What was measured:
[1] = system: IMR32 neuroblastoma cells overexpressing C99-YFP; assay: Secreted Aβ40 ELISA, conditional media of IMR32 cells overexpressing C99-YFP; assay type: cell-based, human; settings: compound 1 μM, 37° C., 24 h
Protocol: (§1) (A) IMR32 cells overexpressing C99-YFP were grown with 2 ml fresh culture medium in 6-well plates, and treated with 1 μM CL-387,785 or DAPT at 37° C. for 24 h. The cell extracts were analyzed by Western blotting. (B) Conditional media were harvested and processed for determination of secreted Aβ40 using a colorimetric Aβ40-specific ELISA kit. (C) C99-YFP-expressing IMR32 cells (160,000 cells/well) were seeded onto 6-well plates and cultured at 37° C. for 24 h, and infected with ErbB1- or ErbB2-targeting shRNA lentivirus for an additional 48 h. Infection mixtures were replaced with 2 ml fresh culture medium, and infected cells were then incubated at 37° C. for an additional 24 h. The cell extracts were analyzed by Western blotting with anti-GFP antibody. (D) The conditioned media were harvested and processed for determination of secreted Aβ40. Data are the mean±SD from three independent experiments, and were analyzed by Student's t-tests. * p<0.05. (E) Schematic presentation of the DNA construct encoding recombinant C99-GFP-P2A-GFP. […]
(§2) Cell-based γ-secretase assays for the nuclear function of AICD or NICD. […] Cellular luminescence was determined by the addition of Steady-Glo Luciferase Assay reagents (PROMEGA™), according to the manufacturer's instructions. […] The level of secreted Aβ40 was quantified using a human Aβ40 sandwich ELISA kit (Invitrogen) according to the manufacturer's instructions.

[2] = system: HEK293 cells overexpressing C99-YFP; assay: Secreted Aβ40 ELISA, conditional media of HEK293 cells overexpressing C99-YFP; assay type: cell-based; settings: 1 μM, 37° C., 24 h
Protocol: Clarified lysates containing equivalent amounts of proteins were analyzed by Western blotting. (B, C) HEK293 overexpressing CFP-LC3 cells were infected with lentivirus encoding shRNA targeting LacZ ErbB2, or ErbB2 plus ATG5 for 48 h. The autophagy induction was analyzed by fluorescence confocal microscopy. The number of CFP-LC3 puncta per cell was quantified. The levels of LC3-I, LC3-II, and GAPDH were analyzed by Western blotting. (D, E) HEK293 cells overexpressing ErbB1, ErbB2, CFP-tagged C99, and YFP-tagged NΔE were infected with lentivirus encoding shRNA targeting LacZ (Ctrl), ErbB1, or ErbB2 for 48 h. […] The levels of LC3-1, LC3-II, and p62 were analyzed by Western blotting and quantified by NIH Image J. Conditional media were harvested and processed for determination of secreted Aβ40 using a colourimetric Aβ40-specific ELISA kit. […] The quantitative data are shown as mean±SD from three independent experiments, and were analyzed by Student's t-tests. * p<0.05.
as §2

[3] = system: zebrafish embryos expressing GFP-tagged C99; assay: C99-expressing zebrafish model of AD, Western blotting of embryo lysates; assay type: in vivo; settings: treated from 48 hpf to 72 hpf at 28° C.
Protocol: as §1, with “C99-GFP-P2A-GFP. CMV, human cytomegalovirus promoter; CI, chimeric intron; P2A, porcine teschovirus 2A peptide.” for “C99-GFP-P2A-GFP.”
Overexpression of APP-C99 zebrafish. […] Clarified lysates containing equal amounts of protein were analyzed by Western blotting.

CC#CC(=O)Nc1ccc2ncnc(Nc3cccc(Br)c3)c2c1 [CL-387,785, N-[4-[(3-bromophenyl)amino]-6-quinazolinyl]-2-butynamide]
level of secreted Aβ40 [1]: significantly reduced | secreted Aβ40 production [2]: effectively decreased | level of AICD in embryos [3]: concomitant clearance | level of C99 in embryos [3]: concomitant clearance

Reference: patent US10576082B2, “ErbB2 regulates autophagic flux to modulate the proteostasis of APP-CTFs in alzheimer's disease” (Academia Sinica, priority 2016, dated 2020)
